Experimental data from patent US20250177422A1 (ZYLORION HEALTH INC., priority 2023, published 2025).

Columns and labels:
[1] = tested on: neuronal progenitor/stem cell levels in mice brain; assay: Neuronal progenitor/stem cell levels in mice brain (immunohistochemistry); assay type: in vivo; settings: 14 days oral; co-crystal form A 3 mg/kg, aripiprazole 0.3 mg/kg; FIG. 6
BDNF = assay: Brain levels of BDNF in mice after acute treatment; assay type: in vivo; settings: 1 hour after oral administration, Co-crystal Form A 3 mg/kg, Aripiprazole 0.3 mg/kg, FIG. 5
mice = assay: Cognitive performance, the Y-maze; assay type: in vivo; settings: oral, 15 days, FIG. 4
Method: Cognitive performance, the Y-maze. Mice will be acclimated to a Y-maze having two familiar arms and one unfamiliar arm 1 day prior to testing (i.e., day-1). One the days of testing mice will be placed in the Y-maze and allowed to freely explore for 5 minutes. Behaviours scored will include total locomotion, time spent in each arm, number of arm entries, and correct alternations between the novel arm and familiar arms. A pro-cognitive effect will be reflected by increased time spent in the novel arm and increased percent correct alternations.

active neurons = assay: Neuronal activation in mice (number of active neurons); settings: 21 days oral, co-crystal form A 3 mg/kg, aripiprazole 0.3 mg/kg, FIG. 7
Method: For immunohistochemistry sampling, EdU (5-Ethynyl-2′-deoxyuridine, Lumiprobe, 100 μg/g) was injected together with the drugs for the first 7 days. On the day following the 14-day treatment period, the brains of the mice were dissected for subsequent analyses, including immunohistochemistry and electrophysiology (E-phys).

**Q.** What does the source list for `O=C1CCc2ccc(OCCCCN3CCN(c4cccc(Cl)c4Cl)CC3)cc2N1` [aripiprazole]?
**A.** neuronal progenitor/stem cell levels in mice brain [1]: no significant effect; brain levels of BDNF (BDNF): significant increase in brain levels of BDNF; short-term and working memory (Y-maze), compared to control (mice): smaller but significant increase; change in neuronal activation (number of active neurons) (active neurons): significant increase
